{"source": "patent US20250002450A1", "about": "“CATIONIC STEROID COMPOUNDS, METHOD OF OBTAINING THEREOF, FORMULATIONS COMPRISING THEREOF AND THEIR USES” (UNIVERSIDADE DO PORTO, priority 2021, published 2025)", "key": {"C. krusei ATCC 6258": {"test_system": "C. krusei ATCC 6258", "experiment": "Antifungal MIC/MLC (broth microdilution)", "assay_type": "cell-based, Candida krusei", "experimental": "The antifungal activity of compound 1 was evaluated for a wide range of fungal species, covering yeasts and filamentous fungi, including dermatophytes. […] This antimicrobial effect was fungicidal, with minimal lethal concentrations (MLC) being equal to, or one or two-fold higher than the respective MIC. Twenty-three fungal strains were used in this study, including reference strains and clinical isolates of yeasts and filamentous fungi. Yeast strains included reference strains (ATCC—American Type Culture Collection and CECT—Colección Española de Cultivos Tipo) and clinical isolates: C. albicans ATCC 10231, Candida krusei ATCC 6258, C. albicans H37, C. albicans FF172, C. albicans FF176, C. albicans DSY294, C. albicans DSY296, C. glabrata DSY562, C. glabrata DSY565 and Cryptococcus neoformans CECT 1078. Filamentous fungi included Aspergillus fumigatus ATCC 240305, A. fumigatus C111, A. niger ATCC 16404, A. flavus F44, Fusarium solani FF125, F. oxysporum FF115, and dermatophytes Trichophyton rubrum FF5, T. mentagrophytes FF7, Microscoporum canis FF1 and Nannizzia gypsea FF3 (formerly Microsporum gypseum) and a species of genera Mucor, Lichetheimia and Scedosporium. Saprolegnia parasitica CBS 223.65, a reference strain of an oomycete fish pathogen, was also included. All microorganisms were kept in Sabouraud Dextrose Broth (SDB: BioMérieux, Marcy L'Etoile, France) plus glycerol (20%) at −80° C. The strains were kept in Sabouraud Dextrose Agar (SDA: BioMérieux, Marcy L'Etoile, France) slants and were sub-cultured in SDA before each test. S. parasitica was kept in Corn Meal Agar plates (CMA: BBL™ Corn Meal Agar, BD, Le Pont-de-Claix, France) and was sub-cultured in CMA before each experiment. C. albicans H37, was kindly provided by Cidilia Pina Vaz (CHSJ, Porto, Portugal) and C. albicans DSY294, C. albicans DSY296, C. glabrata DSY562, C. glabrata DSY565 were kindly provided by D. Sanglard (University of Lausanne, Switzerland). A stock solution of compound 1 (10 mg/mL), was prepared in dimethyl sulfoxide (DMSO 99%: Alfa Aesar, Kandel, Germany), kept at −20 degrees C., and freshly diluted in the appropriate culture media before each assay. In all experiments, in-test concentrations of DMSO were kept below 2%. Fluconazole (Alfa Aesar, Ward Hill, MA, USA) was tested as commercial antifungal.\nAntifungal activity was evaluated by determining the MIC of compound 1 by the broth microdilution method, according to CLSI guidelines (reference documents M27-A3 for yeasts and M38-A2 for filamentous fungi). […] The minimal lethal concentration (MLC) was determined by spreading 20 μL of culture collected from wells showing no visible growth on SDA plates. The MLC was determined as the lowest concentration showing complete growth inhibition after 48 h at 35 degrees C., 48 h at 25 degrees C. […]"}, "S. aureus 66/1": {"test_system": "S. aureus 66/1", "experiment": "Checkerboard synergy with OXA", "assay_type": "cell-based, Staphylococcus aureus", "experimental": "The combined effect of compound 1 and CTX for E. coli SA/2, VAN for E. faecalis B3/101, COL for E. coli 2252, erythromycin for E. coli ATCC 25922, and OXA for S. aureus 66/1 was evaluated by the checkerboard method. […] The interaction between compound 1 and erythromycin was assessed for E. coli ATCC 25922. Gram-negative bacteria are intrinsically resistant to erythromycin, a macrolide that inhibits protein synthesis, and cannot penetrate the outer membrane of Gram-negative bacteria, which is impermeable to hydrophobic antibiotics. Ascertain ceragenins have been previously described to be able to enhance the efficacy of such antibiotics, this possibility was investigated for compound 1 and a FICI of 0.6 was obtained."}, "S. aureus ATCC 29213": {"test_system": "S. aureus ATCC 29213", "experiment": "Bacterial biofilm formation inhibition (crystal violet)", "assay_type": "cell-based, Staphylococcus aureus", "conditions": "2×MIC and MIC, 24 h", "experimental": "In an embodiment, the antibiofilm activity of compound 1 was performed as follows. Given its bactericidal effect, the impact of compound 1 on the biofilm formation of reference strains was studied.\nThe effect of compound 1 on bacterial biofilm formation was evaluated through quantification of total biomass, using the crystal violet method, as previously described ([FIG. 6]). […] A control with an appropriate concentration of DMSO, as well as a negative control (TSB alone) was included. Sterile 96-well flat-bottomed untreated polystyrene microtiter plates were used. After a 24 h incubation at 37 degrees C., the biofilms were heat-fixed for 1 h at 60 degrees C. and stained with 0.5% (v/v) crystal violet (Quimica Clinica Aplicada, Amposta, Spain) for 5 min. The stain was resolubilized with 33% (v/v) acetic acid (Acetic acid 100%, AppliChem, Darmstadt, Germany) and the biofilm biomass was quantified by measuring the absorbance of each sample at 570 nm in a microplate reader (Thermo Scientific Multiskan® EX, Thermo Fisher Scientific, Waltham, MA, USA). The background absorbance (TSB or TSB+1% glucose without inoculum) was subtracted from the absorbance of each sample and the data are presented as a percentage of control. Three independent assays were performed for reference strains, with triplicates for each experimental condition."}, "C. albicans ATCC 10231": {"test_system": "C. albicans ATCC 10231", "experiment": "Propidium iodide influx assay (SYTO 9/PI)", "assay_type": "cell-based, Candida albicans", "conditions": "5 min", "protocol": "Influx of PI in C. albicans ATCC 10231 treated with compound 1 was evaluated using a commercial kit, which includes fluorescent nucleic acid stains SYTO™ 9 and PI, and measurements were conducted in a fluorescence microplate reader. […] The ability of PI to penetrate cells with damaged membranes makes it suitable for studying the effect of drugs on cell membranes.\nIn order to assess membrane integrity by the PI influx assay, a commercial kit was used (LIVE/DEAD® BacLight™ Bacterial Viability Kit, for microscopy & quantitative assays, Invitrogen by Thermo Fisher Scientific, Waltham, MA, USA), which includes fluorescent nucleic acid stains SYTO® 9 and PI. Briefly, C. albicans ATCC 10231 colonies from overnight cultures in SDA were suspended in sterile saline and adjusted to 0.5 McFarland. This suspension was then diluted in RPMI (1:50 followed by 1:20) to achieve a final concentration of 0.5-2.5×10^3 CFU/mL and the tubes were incubated overnight at 36° C. in a water bath with shaking. The following day, the cell suspensions were centrifuged at 3500 rpm for 15 min, the supernatant was removed, and the cells were carefully resuspended in 2 mL of 0.85% NaCl (VWR International, Radnor, PA, USA) prepared in ultrapure water. An aliquot of this suspension was then added to each tube of 0.85% NaCl alone (control) or 0.85% NaCl plus an appropriate amount of test compound, in a 1:10 proportion. […] Fluorescence intensity of the stained yeast suspensions was obtained in a microplate reader (Synergy HT, BioTek Instruments) by two consecutive measurements: with excitation wavelength 485 nm and emission wavelength 528 nm (SYTO® 9) and with excitation wavelength 485 nm and emission wavelength 590 nm (PI). Data were analyzed by subtracting background fluorescence from each sample, dividing fluorescence intensity of SYTO® 9 by fluorescence intensity of PI, and are presented as a percentage of control. […]"}, "[1]": {"conditions": "C. krusei ATCC 6258, intrinsically resistant to fluconazole"}}, "note": "Where two headings read alike, the source gives them in different places.", "data": [{"molecule": "C[C@H](CCC(=O)NCCN)[C@H]1CC[C@H]2[C@@H]3CC[C@@H]4C[C@H](O)CC[C@]4(C)[C@H]3C[C@H](O)[C@]12C", "note": "[Compound 1, (R)—N-(2-aminoethyl)-4-((3R,5R,8R,9S,10S,12S,13R,14S,17R)-3,12-dihydroxy-10,13-dimethylhexadecahydro-1H-cyclopenta[a]phenanthren-17-yl) pentanamida]", "values": [{"measurement": "MIC", "setting": "C. krusei ATCC 6258; [1]", "result": 64, "unit": "µg/mL"}, {"measurement": "MLC", "setting": "C. krusei ATCC 6258; [1]", "result": 64, "unit": "µg/mL"}, {"measurement": "combined effect with OXA (in words)", "setting": "S. aureus 66/1", "result": "No synergistic interactions"}, {"measurement": "biofilm formation (in words)", "setting": "S. aureus ATCC 29213", "result": "significantly inhibited"}, {"measurement": "influx of PI", "setting": "C. albicans ATCC 10231; 32 μg/mL (½×MIC)", "result": "no evidence of influx of PI"}, {"measurement": "reduction of SYTO 9/PI ratio vs untreated control", "setting": "C. albicans ATCC 10231; 128 and 64 μg/mL (2×MIC and MIC)", "result": "significant"}]}, {"molecule": "OC(Cn1cncn1)(Cn1cncn1)c1ccc(F)cc1F", "note": "[Fluconazole, reference compound]", "values": [{"measurement": "MLC", "setting": "C. krusei ATCC 6258; [1]", "result": ">128", "unit": "µg/mL"}, {"measurement": "MIC", "setting": "C. krusei ATCC 6258; Pichia kudriavzevii, ATCC6258, read-out: MIC", "result": 32, "unit": "µg/mL"}]}]}
